Where “and” joins values, the source holds several entries; their conditions need not be identical. Equal values may be shown once. Numbers after ± are expanded uncertainties.
Settings: Liquid, Vibrating tube method

CCCCCC(=O)OCC(COC(=O)CCCCC)(COC(=O)CCCCC)COC(=O)CCCCC [pentaerythritol tetrahexanoate]
Settings | mass density
303.15 K, 32445 kPa | 1007.6 ± 1.2 kg/m3
303.15 K, 32464 kPa | 1007.7 ± 1.2 kg/m3
303.15 K, 32483 kPa | 1007.6 ± 1.2 kg/m3
303.15 K, 32506 kPa | 1007.5 ± 1.2 kg/m3
303.15 K, 32525 kPa | 1007.6 ± 1.2 kg/m3
303.15 K, 32544 kPa | 1007.5 ± 1.2 kg/m3
303.15 K, 32567 kPa | 1007.6 ± 1.2 kg/m3
303.15 K, 32586 kPa | 1007.6 ± 1.2 kg/m3
303.15 K, 32605 kPa | 1007.7 ± 1.2 kg/m3
303.15 K, 32624 kPa | 1007.6 ± 1.2 kg/m3
303.15 K, 32647 kPa | 1007.7 ± 1.2 kg/m3
303.15 K, 32808 kPa | 1007.7 ± 1.2 kg/m3
303.15 K, 32832 kPa | 1007.7 ± 1.2 kg/m3
303.15 K, 32851 kPa | 1007.8 ± 1.2 kg/m3
303.15 K, 32871 kPa | 1007.7 ± 1.2 kg/m3
303.15 K, 32895 kPa | 1007.8 ± 1.2 kg/m3
303.15 K, 33911 kPa | 1008.4 ± 1.2 kg/m3
303.15 K, 33938 kPa | 1008.4 ± 1.2 kg/m3
303.15 K, 33963 kPa | 1008.4 ± 1.2 kg/m3
303.15 K, 33989 kPa | 1008.3 ± 1.2 kg/m3
303.15 K, 34002 kPa | 1008.3 ± 1.2 kg/m3
303.15 K, 34011 kPa | 1008.3 ± 1.2 kg/m3
303.15 K, 34016 kPa | 1008.3 ± 1.2 kg/m3
303.15 K, 34028 kPa | 1008.4 ± 1.2 kg/m3
303.15 K, 34041 kPa | 1008.4 ± 1.2 kg/m3
303.15 K, 34057 kPa | 1008.4 ± 1.2 kg/m3
303.15 K, 34070 kPa | 1008.3 ± 1.2 kg/m3
303.15 K, 34166 kPa | 1008.4 ± 1.2 kg/m3
303.15 K, 34178 kPa | 1008.6 ± 1.2 kg/m3
303.15 K, 34182 kPa | 1008.4 ± 1.2 kg/m3
303.15 K, 34186 kPa | 1008.5 ± 1.2 kg/m3
303.15 K, 34190 kPa | 1008.5 ± 1.2 kg/m3
303.15 K, 34194 kPa | 1008.5 ± 1.2 kg/m3
303.15 K, 34195 kPa | 1008.6 ± 1.2 kg/m3
303.15 K, 34196 kPa | 1008.5 ± 1.2 kg/m3 and 1008.4 ± 1.2 kg/m3
303.15 K, 34197 kPa | 1008.5 ± 1.2 kg/m3
303.15 K, 34198 kPa | 1008.4 ± 1.2 kg/m3
303.15 K, 34425 kPa | 1008.7 ± 1.2 kg/m3
303.15 K, 34426 kPa | 1008.6 ± 1.2 kg/m3
303.15 K, 34427 kPa | 1008.6 ± 1.2 kg/m3
303.15 K, 34428 kPa | 1008.6 ± 1.2 kg/m3
303.15 K, 34430 kPa | 1008.8 ± 1.2 kg/m3 and 1008.6 ± 1.2 kg/m3
303.15 K, 34431 kPa | 1008.7 ± 1.2 kg/m3
303.15 K, 34432 kPa | 1008.8 ± 1.2 kg/m3
303.15 K, 34434 kPa | 1008.7 ± 1.2 kg/m3 and 1008.6 ± 1.2 kg/m3
303.16 K, 193.7 kPa | 988.5 ± 1.2 kg/m3 and 988.4 ± 1.2 kg/m3
303.16 K, 193.9 kPa | 988.4 ± 1.2 kg/m3
303.16 K, 194.1 kPa | 988.5 ± 1.2 kg/m3 and 988.4 ± 1.2 kg/m3
303.16 K, 194.3 kPa | 988.6 ± 1.2 kg/m3 and 988.4 ± 1.2 kg/m3
303.16 K, 194.4 kPa | 988.6 ± 1.2 kg/m3
303.16 K, 195.5 kPa | 988.4 ± 1.2 kg/m3
303.16 K, 195.6 kPa | 988.5 ± 1.2 kg/m3
303.16 K, 195.7 kPa | 988.5 ± 1.2 kg/m3
303.16 K, 196.9 kPa | 988.5 ± 1.2 kg/m3
303.16 K, 197.4 kPa | 988.5 ± 1.2 kg/m3 and 988.4 ± 1.2 kg/m3
303.16 K, 197.6 kPa | 988.4 ± 1.2 kg/m3
303.16 K, 197.7 kPa | 988.5 ± 1.2 kg/m3
303.16 K, 198.1 kPa | 988.5 ± 1.2 kg/m3
303.16 K, 199.6 kPa | 988.5 ± 1.2 kg/m3
303.16 K, 200 kPa | 988.5 ± 1.2 kg/m3
303.16 K, 200.2 kPa | 988.6 ± 1.2 kg/m3
303.16 K, 200.3 kPa | 988.4 ± 1.2 kg/m3
303.16 K, 200.5 kPa | 988.5 ± 1.2 kg/m3
303.16 K, 200.7 kPa | 988.4 ± 1.2 kg/m3
303.16 K, 201 kPa | 988.5 ± 1.2 kg/m3
303.16 K, 201.2 kPa | 988.5 ± 1.2 kg/m3
303.16 K, 201.4 kPa | 988.6 ± 1.2 kg/m3 and 988.3 ± 1.2 kg/m3
303.16 K, 201.6 kPa | 988.4 ± 1.2 kg/m3
303.16 K, 201.9 kPa | 988.5 ± 1.2 kg/m3
303.16 K, 202.2 kPa | 988.5 ± 1.2 kg/m3
303.16 K, 202.8 kPa | 988.5 ± 1.2 kg/m3
303.16 K, 202.9 kPa | 988.5 ± 1.2 kg/m3
303.16 K, 204.2 kPa | 988.5 ± 1.2 kg/m3
303.16 K, 207.1 kPa | 988.5 ± 1.2 kg/m3
303.16 K, 207.3 kPa | 988.5 ± 1.2 kg/m3
303.16 K, 207.8 kPa | 988.4 ± 1.2 kg/m3
303.16 K, 208 kPa | 988.5 ± 1.2 kg/m3
303.16 K, 208.2 kPa | 988.5 ± 1.2 kg/m3
303.16 K, 209 kPa | 988.5 ± 1.2 kg/m3
303.16 K, 209.2 kPa | 988.5 ± 1.2 kg/m3
303.16 K, 209.5 kPa | 988.6 ± 1.2 kg/m3
303.16 K, 209.7 kPa | 988.4 ± 1.2 kg/m3
303.16 K, 211.5 kPa | 988.5 ± 1.2 kg/m3
303.16 K, 211.8 kPa | 988.5 ± 1.2 kg/m3
303.16 K, 212.7 kPa | 988.4 ± 1.2 kg/m3 and 988.5 ± 1.2 kg/m3
303.16 K, 212.9 kPa | 988.5 ± 1.2 kg/m3
303.16 K, 219.3 kPa | 988.6 ± 1.2 kg/m3
303.16 K, 220.1 kPa | 988.5 ± 1.2 kg/m3
303.16 K, 220.8 kPa | 988.6 ± 1.2 kg/m3
303.16 K, 221.2 kPa | 988.6 ± 1.2 kg/m3 and 988.4 ± 1.2 kg/m3 and 988.5 ± 1.2 kg/m3
303.16 K, 221.4 kPa | 988.6 ± 1.2 kg/m3
303.16 K, 221.5 kPa | 988.6 ± 1.2 kg/m3
303.16 K, 221.9 kPa | 988.5 ± 1.2 kg/m3
303.16 K, 222.2 kPa | 988.6 ± 1.2 kg/m3
303.16 K, 222.4 kPa | 988.5 ± 1.2 kg/m3
303.16 K, 222.8 kPa | 988.6 ± 1.2 kg/m3
303.16 K, 223.1 kPa | 988.5 ± 1.2 kg/m3 and 988.4 ± 1.2 kg/m3
303.16 K, 223.3 kPa | 988.4 ± 1.2 kg/m3
303.16 K, 223.6 kPa | 988.5 ± 1.2 kg/m3
303.16 K, 223.8 kPa | 988.6 ± 1.2 kg/m3
303.16 K, 224 kPa | 988.4 ± 1.2 kg/m3
303.16 K, 224.1 kPa | 988.6 ± 1.2 kg/m3
303.16 K, 224.5 kPa | 988.4 ± 1.2 kg/m3
303.16 K, 225 kPa | 988.6 ± 1.2 kg/m3
303.16 K, 225.2 kPa | 988.4 ± 1.2 kg/m3
303.16 K, 225.7 kPa | 988.5 ± 1.2 kg/m3
303.16 K, 226 kPa | 988.4 ± 1.2 kg/m3
303.16 K, 226.6 kPa | 988.4 ± 1.2 kg/m3 and 988.6 ± 1.2 kg/m3
303.16 K, 227.1 kPa | 988.5 ± 1.2 kg/m3
303.16 K, 227.3 kPa | 988.6 ± 1.2 kg/m3 and 988.5 ± 1.2 kg/m3
303.16 K, 227.6 kPa | 988.5 ± 1.2 kg/m3 and 988.4 ± 1.2 kg/m3 and 988.6 ± 1.2 kg/m3
303.16 K, 231.4 kPa | 988.4 ± 1.2 kg/m3
303.16 K, 232 kPa | 988.5 ± 1.2 kg/m3
303.16 K, 232.1 kPa | 988.5 ± 1.2 kg/m3
303.16 K, 232.7 kPa | 988.5 ± 1.2 kg/m3
303.16 K, 233.9 kPa | 988.5 ± 1.2 kg/m3
303.16 K, 234 kPa | 988.5 ± 1.2 kg/m3 and 988.6 ± 1.2 kg/m3
303.16 K, 234.2 kPa | 988.5 ± 1.2 kg/m3
303.16 K, 234.6 kPa | 988.5 ± 1.2 kg/m3
303.16 K, 234.9 kPa | 988.5 ± 1.2 kg/m3
303.16 K, 235.4 kPa | 988.6 ± 1.2 kg/m3
303.16 K, 235.6 kPa | 988.6 ± 1.2 kg/m3
303.16 K, 236 kPa | 988.5 ± 1.2 kg/m3
303.16 K, 236.1 kPa | 988.6 ± 1.2 kg/m3
303.16 K, 236.3 kPa | 988.5 ± 1.2 kg/m3 and 988.6 ± 1.2 kg/m3
303.16 K, 236.8 kPa | 988.6 ± 1.2 kg/m3 and 988.5 ± 1.2 kg/m3
303.16 K, 237.2 kPa | 988.5 ± 1.2 kg/m3
303.16 K, 237.5 kPa | 988.6 ± 1.2 kg/m3
303.16 K, 237.7 kPa | 988.5 ± 1.2 kg/m3
303.16 K, 238 kPa | 988.6 ± 1.2 kg/m3 and 988.5 ± 1.2 kg/m3
303.16 K, 239.3 kPa | 988.5 ± 1.2 kg/m3
303.16 K, 239.4 kPa | 988.5 ± 1.2 kg/m3
303.16 K, 240 kPa | 988.5 ± 1.2 kg/m3 and 988.6 ± 1.2 kg/m3
303.16 K, 240.3 kPa | 988.4 ± 1.2 kg/m3
303.16 K, 240.5 kPa | 988.5 ± 1.2 kg/m3
303.16 K, 240.8 kPa | 988.5 ± 1.2 kg/m3
303.16 K, 241.3 kPa | 988.5 ± 1.2 kg/m3
303.16 K, 241.5 kPa | 988.5 ± 1.2 kg/m3
303.16 K, 241.7 kPa | 988.5 ± 1.2 kg/m3
303.16 K, 242.2 kPa | 988.6 ± 1.2 kg/m3
303.16 K, 242.6 kPa | 988.5 ± 1.2 kg/m3
303.16 K, 242.7 kPa | 988.6 ± 1.2 kg/m3
303.16 K, 242.9 kPa | 988.6 ± 1.2 kg/m3
303.16 K, 243.3 kPa | 988.4 ± 1.2 kg/m3
303.16 K, 243.4 kPa | 988.5 ± 1.2 kg/m3
